The values that follow come from US20210161855A1, “5-LIPOXYGENASE ANTAGONISTS” (INSTITUTO DE MEDICINA MOLECULAR JOÃO LOBO ANTUNES, priority 2017, published 2021).

The target of data set [1] is T1, 12-lipoxygenase (12-LO) (Homo sapiens, UniProt P18054).
T1 sequence (P18054 1-663): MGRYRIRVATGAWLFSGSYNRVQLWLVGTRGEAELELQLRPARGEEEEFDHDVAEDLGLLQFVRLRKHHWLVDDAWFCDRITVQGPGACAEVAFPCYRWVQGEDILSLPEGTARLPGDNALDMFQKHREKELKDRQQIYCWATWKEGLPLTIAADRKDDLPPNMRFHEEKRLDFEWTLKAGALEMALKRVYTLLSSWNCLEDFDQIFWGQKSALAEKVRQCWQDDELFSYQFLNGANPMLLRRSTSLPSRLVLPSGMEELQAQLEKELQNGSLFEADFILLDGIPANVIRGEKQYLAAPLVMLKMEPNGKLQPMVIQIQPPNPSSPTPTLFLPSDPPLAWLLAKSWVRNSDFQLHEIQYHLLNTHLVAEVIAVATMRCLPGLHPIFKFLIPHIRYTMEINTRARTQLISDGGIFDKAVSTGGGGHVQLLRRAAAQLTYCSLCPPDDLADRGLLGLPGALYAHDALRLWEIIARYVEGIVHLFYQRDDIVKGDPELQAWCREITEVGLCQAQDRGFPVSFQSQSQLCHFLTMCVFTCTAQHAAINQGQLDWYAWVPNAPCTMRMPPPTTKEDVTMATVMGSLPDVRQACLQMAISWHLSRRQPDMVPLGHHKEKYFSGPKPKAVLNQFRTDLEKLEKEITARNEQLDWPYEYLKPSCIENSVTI
As to the kind of experiment: 12-LO inhibition assay, Method A (Cerep). It is filed as biochemical. Here is the method:
(§1) Method A: 5-Lipoxygenase (5-LO), 12-lipoxygenase (12-LO) and 15-lipoxygenase-2 (15-LO-2) inhibition assays were performed at Cerep, SA (Celle l'Evescault, France) on a fee-for-service basis (Ref 0772^36, 0883^37 and 0893^38, respectively), as described in Table 1.

The conditions of data set [2]: mouse, in vivo, iv, 100 mg/kg.
In data set [3] the target is T2, 5-lipoxygenase (5-LO) (Homo sapiens, UniProt P09917).
T2 sequence (P09917 1-674): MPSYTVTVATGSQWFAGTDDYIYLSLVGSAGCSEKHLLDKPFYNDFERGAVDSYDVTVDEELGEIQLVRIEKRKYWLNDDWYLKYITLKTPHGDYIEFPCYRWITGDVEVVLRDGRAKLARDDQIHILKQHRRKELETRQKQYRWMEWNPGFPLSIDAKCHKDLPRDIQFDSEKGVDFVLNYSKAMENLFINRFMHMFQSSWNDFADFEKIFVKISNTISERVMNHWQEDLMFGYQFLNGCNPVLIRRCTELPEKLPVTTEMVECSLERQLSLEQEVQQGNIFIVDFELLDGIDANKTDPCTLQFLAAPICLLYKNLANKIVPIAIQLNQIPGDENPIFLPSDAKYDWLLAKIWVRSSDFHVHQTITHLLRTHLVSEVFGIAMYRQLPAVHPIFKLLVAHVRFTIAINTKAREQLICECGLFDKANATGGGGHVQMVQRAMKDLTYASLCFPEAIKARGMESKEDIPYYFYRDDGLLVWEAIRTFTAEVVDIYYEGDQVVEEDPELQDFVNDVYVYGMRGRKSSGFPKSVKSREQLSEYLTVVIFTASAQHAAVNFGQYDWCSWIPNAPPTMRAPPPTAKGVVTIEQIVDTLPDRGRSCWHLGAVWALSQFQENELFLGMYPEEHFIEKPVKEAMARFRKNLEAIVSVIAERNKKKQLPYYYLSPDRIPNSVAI
As to the kind of experiment: 5-LO inhibition assay, Method A (Cerep), cell-free functional. It is filed as biochemical. As to the method: as §1

Data set [4] deals with HL-60. The note with it: cited from earlier work.
The target in data set [5] is T3, EP3 (Homo sapiens, UniProt P43115).
T3 sequence (P43115 1-390): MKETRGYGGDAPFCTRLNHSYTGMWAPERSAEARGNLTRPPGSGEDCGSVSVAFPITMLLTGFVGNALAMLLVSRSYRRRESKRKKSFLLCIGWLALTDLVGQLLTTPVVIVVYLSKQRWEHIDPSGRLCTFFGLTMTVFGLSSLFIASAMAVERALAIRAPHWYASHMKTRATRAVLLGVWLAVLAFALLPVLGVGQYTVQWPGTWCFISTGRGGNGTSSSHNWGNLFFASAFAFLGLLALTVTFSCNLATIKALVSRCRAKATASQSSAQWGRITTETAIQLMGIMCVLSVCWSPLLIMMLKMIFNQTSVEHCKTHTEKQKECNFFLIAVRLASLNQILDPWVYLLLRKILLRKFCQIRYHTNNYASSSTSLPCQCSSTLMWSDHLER
As to the kind of experiment: Prostanoid EP3 receptor antagonism, functional assay. It is filed as cell-based. The settings on record: 150 μM.

Data set [6] has as its system HL-60. As to the kind of experiment: Cell viability, AML model HL-60 (FIG. 9a). The settings on record: Homo sapiens, n=3. It is filed as cell-based.
Data set [7] relates to 15-LO. As to the kind of experiment: 15-LO inhibition in intact human neutrophils. The format is cell-based. The settings on record: without DTT. As to the method: Peripheral blood (University Hospital Jena, Germany) was withdrawn from healthy adult volunteers with consent that had not taken any anti-inflammatory drugs during the last 10 days, by venipuncture in heparinized tubes (16 IE heparin/mL blood). The blood was centrifuged at 4000 g for 20 min at 20° C. for preparation of leukocyte concentrates. Leukocyte concentrates were then subjected to dextran sedimentation and centrifugation on lymphocyte separation medium (LSM 1077, PAA, Colbe, Germany). Contaminating erythrocytes of pelleted neutrophils were removed by hypotonic Iysis. […] Method B. […] Cysteinyl-LTs C4, D4 and E4 were not detected (amounts were below detection limit), and oxidation products of LTB4 were not determined.

As usually defined, the IC50 is the concentration needed to halve the response being measured. A low value points to inhibition by little substance. As a reminder, the GI50 is the concentration at which growth is held to half of that of the control.

With `CC1(C)CCC2=C(O1)c1ccccc1C(=O)C2=O` [Compound 1, 3,4-dihydro-2,2-dimethyl-2H-naphtho[1,2-b]pyran-5,6-dione], in data set [1], the inhibition at 5 µM stood at 38%. The “Toxicity at higher doses” value in data set [2] is recorded as “toxicity”. Besides, the “Ligand efficiency (LE), 5-LO” value in data set [3] (from IC50 2.1 μM) amounted to 0.44. In addition, in data set [3] (read-out: 5-LO inhibition at the assayed concentration), the inhibition at 150 µM turned out to be 96%. Further, the IC50 in data set [3] (reducing conditions) was 2.1 µM; in data set [6] it was 2.7 µM; in data set [7] it was over 30 µM. In addition, in data set [4] (NCI-60, z-transformed pGI50), the pGI50 z-score is recorded as 2.38. Also, the GI50 in data set [4] (NCI-60) was 0.0624 µM. The compound also gave an EP3 antagonist effect in data set [5] of 95%.
